The target of test [1] is T1, S1PR2 (Homo sapiens, UniProt O95136).
T1 construct: expressed in transfected cells
Nature of the test: S1PR2 binding assay (competition with radioactively labeled S1P, SpA). The settings on record: membranes from stable cell line over expressing S1PR2, SpA beads; read-out: S1P2 EC50 (nM), S1PR2 binding EC50. The procedure, abridged: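 Scintillation proximity read-out after 2 h room-temperature incubation of compound, [3H]S1P and S1PR2-overexpressing cell membranes on WGA-coated beads. Buffer: 20 mM Tris pH 7.5, 100 mM NaCl, 10 mM MgCl2, 1 mM Na3VO4, 0.4% fatty-acid-free BSA; plates counted immediately after centrifugation.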

The test system of test [2] is HFL-1 cells. The experiment in a line: IL-8 production assay (S1P induced IL-8). Format: cell-based. The settings on record: Homo sapiens, HFL1; S1P (1 μM) induced IL-8 in HFL-1 cells, starvation medium without HSA; read-out: IL8 EC50. The procedure, abridged: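 HFL-1 fibroblasts in low-serum medium were pretreated 1 h with a 10-point 1/3 series of compound starting at 30 μM (0.3% DMSO).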

Test [3] addresses T2, human GPCR sphingosine 1-phosphate receptor 2 (Homo sapiens, UniProt O95136).
T2 construct: host or cells: CHO
Nature of the test: S1PR2 antagonist Ca2+ flux assay. The format is cell-based. The settings on record: antagonist mode, CHO-S1PR2 cells, S1P at EC80, Ca2+ fluorescence; read-out: S1P2 EC50 (nM), S1P2 antagonist EC50. The procedure, abridged:
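Antagonist mode: 15 min after compound addition, S1P (EC80) stimulates Fluo8-loaded, 1 h-starved CHO-S1PR2 cells, Ca2+ read over 3 min; a prior 3-min read checks compound agonism. EC50 from peak/baseline fluorescence ratio, normalised versus vehicle and S1P EC50 (antagonist) or EC100 (agonist).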
(A change in cytosolic calcium serves as a functional read-out for many receptors and channels.)

Test [4] has as its system HFL-1 cells. Nature of the test: IL8 assay in the presence of Human Serum Albumin. The settings on record: HFL1, read-out: HSA IL8 EC50.
Description: To evaluate the influence of plasma protein binding of S1P as well as compound, the S1P induced IL-8 levelswereevaluatedin presence of Human Serum Albumin (HSA, equivalent to 40% human serum).
Human Fetal Lung cells (HFL-1) are seeded in 96 well plates in growth medium (F12K+10% heat inactivated FBS+1% Pen/strep). […] On day three, compounds are added (10 point serial dilution, 30 μM highest concentration, 1/3 dilution, 0.3% DMSO final) and plates are incubated for 1 h at 37° C., 5% CO2. Subsequently S1P at 5 μM final concentration is added and plates are incubated for 16 to 24 h at 37° C., 5% COafter which the supernatant was collected. IL-8 levels in the supernatant are determined with the IL-8 ELISA of R&D systems.
Test [5] concerns the target T3, human GPCR sphingosine 1-phosphate receptor 5 (Homo sapiens, UniProt Q9H228).
T3 construct: host or cells: CHO
The experiment in a line: S1PR5 selectivity Ca2+ flux assay (antagonist readout). The format is cell-based. The settings on record: CHO cells overexpressing human S1PR5 and Gq, agonist at EC80 (20 nM), read-out: S1P5 EC50 (nM), S1P5 antagonist EC50. The procedure, abridged: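 Antagonist readout: after 15 min compound preincubation at 37° C, human S1PR5/Gq CHO cells loaded with Fluo 8 dye received an EC80 challenge of S1PR5-specific agonist, and fluorescence was recorded for 3 min. Maximal-over-background ratios, normalized as % inhibition, gave IC50 by logistic fit.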

Test [6] deals with T4, human GPCR sphingosine 1-phosphate receptor 1 (Homo sapiens, UniProt P21453).
T4 construct: host or cells: CHO
T4 sequence (P21453 whole entry): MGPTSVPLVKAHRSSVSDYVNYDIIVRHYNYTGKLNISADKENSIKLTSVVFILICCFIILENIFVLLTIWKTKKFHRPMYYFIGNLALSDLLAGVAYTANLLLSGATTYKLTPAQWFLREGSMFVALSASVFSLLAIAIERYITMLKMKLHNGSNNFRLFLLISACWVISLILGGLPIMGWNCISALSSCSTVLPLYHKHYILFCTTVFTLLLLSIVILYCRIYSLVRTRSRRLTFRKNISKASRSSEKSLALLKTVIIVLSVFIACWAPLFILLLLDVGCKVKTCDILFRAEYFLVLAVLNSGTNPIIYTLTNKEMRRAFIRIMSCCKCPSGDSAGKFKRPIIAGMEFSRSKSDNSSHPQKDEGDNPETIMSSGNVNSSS
The experiment in a line: S1PR1 selectivity Ca2+ flux assay (antagonist readout). The format is cell-based. The settings on record: antagonist readout, CHO cells overexpressing human S1PR1 and Gq, S1P at EC80 (6 nM); read-out: S1P1 EC50 (nM), S1P1 antagonist EC50. The procedure, abridged:
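Antagonist mode: S1P challenge follows 15 min compound preincubation at 37 °C. Cells are CHO stably expressing human S1PR1, serum-starved 1 h (0.1% FAF BSA), loaded with Fluo 8. Peak-over-baseline fluorescence ratio is normalized to positive/negative controls; IC50 from logistic curve fit.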

Some results are limits rather than exact numbers.

The text below walks through data of US20210315893A1 (Galapagos NV, priority 2017, published 2021).

A word on the EC50: it is the concentration giving half of the maximal effect.

T3 sequence (Q9H228 whole entry): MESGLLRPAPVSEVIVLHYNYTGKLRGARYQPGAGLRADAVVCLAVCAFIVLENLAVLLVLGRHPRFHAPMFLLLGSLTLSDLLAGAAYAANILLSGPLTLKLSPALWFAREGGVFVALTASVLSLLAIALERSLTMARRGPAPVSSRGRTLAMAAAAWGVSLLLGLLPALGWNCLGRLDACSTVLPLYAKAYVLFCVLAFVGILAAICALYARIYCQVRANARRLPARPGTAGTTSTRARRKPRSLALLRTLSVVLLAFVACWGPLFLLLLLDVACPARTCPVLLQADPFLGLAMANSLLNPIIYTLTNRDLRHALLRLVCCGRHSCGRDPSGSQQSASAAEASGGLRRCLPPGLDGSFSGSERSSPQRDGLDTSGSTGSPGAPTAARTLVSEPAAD
T2 sequence (O95136 whole entry): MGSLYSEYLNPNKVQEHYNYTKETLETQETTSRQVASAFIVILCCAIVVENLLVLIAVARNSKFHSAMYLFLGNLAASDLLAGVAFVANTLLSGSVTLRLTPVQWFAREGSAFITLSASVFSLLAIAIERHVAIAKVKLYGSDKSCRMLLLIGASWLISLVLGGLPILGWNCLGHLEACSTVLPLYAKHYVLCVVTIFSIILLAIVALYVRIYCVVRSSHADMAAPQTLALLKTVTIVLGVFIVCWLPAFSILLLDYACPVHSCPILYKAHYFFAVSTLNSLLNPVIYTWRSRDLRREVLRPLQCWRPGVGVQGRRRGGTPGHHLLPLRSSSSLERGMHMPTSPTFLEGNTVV
T1 sequence (O95136 whole entry): as above

As to `CC(C(=O)O)n1nc(Cc2nc3cc(OCC4CC4)c(Cl)cc3[nH]2)c2ccccc2c1=O` (stereo not drawn) [Compound 122, 2-[4-(6-Chloro-5-cyclopropylmethoxy-1H-benzoimidazol-2-ylmethyl)-1-oxo-1H-phthalazin-2-yl]-propionic acid], the 50% effective concentration (EC50) in test [1] was 342 nM; in test [2], 2.29 nM; in test [3], 13.6 nM; in test [4], 13.3 nM; in test [5], 19800 nM; in test [6] it was 3720 nM.

For `O=C(O)Cn1cc(Cc2nc3cc(Cl)c(OCC(F)F)cc3[nH]2)c2ccccc2c1=O` [Compound 125, {4-[5-Chloro-6-(2,2-difluoro-ethoxy)-1H-benzoimidazol-2-ylmethyl]-1-oxo-1H-isoquinolin-2-yl}-acetic acid], the concentration for a half-maximal effect (EC50) in test [1] was 200 nM; in test [2], 66.1 nM; in test [3] it was 24.4 nM; in test [4] it was 1680 nM; in test [5], 19800 nM; in test [6], ≥ 19800 nM.

As for `O=C(O)Cn1nc(Cc2nc3cc(OCC(F)F)c(Cl)cc3[nH]2)c2c(F)ccc(F)c2c1=O` [Compound 126, 2-[4-[[6-chloro-5-(2,2-difluoroethoxy)-1H-benzimidazol-2-yl]methyl]-5,8-difluoro-1-oxo-phthalazin-2-yl]acetic acid], the EC50 in test [1] is 93.5 nM; in test [2], 5.97 nM; in test [3], 19.1 nM; in test [4], 113 nM; in test [5], 19800 nM; in test [6], ≥ 19800 nM.

As to `CCOc1cc2nc(Cc3nn(CC(=O)O)c(=O)c4ccccc34)[nH]c2cc1C(F)(F)F` [Compound 127, 2-[4-[[5-ethoxy-6-(trifluoromethyl)-1H-benzimidazol-2-yl]methyl]-1-oxo-phthalazin-2-yl]acetic acid], the EC50 amounted to 479 nM in test [1]; 13.6 nM in test [2]; 8.27 nM in test [3]; 61.7 nM in test [4]; 19800 nM in test [5]; 3500 nM in test [6].

`CCOc1cc2[nH]n(Cc3nn(CC(=O)O)c(=O)c4ccccc34)c(=O)c2cc1Cl` [Compound 128, 2-[4-[(5-chloro-6-ethoxy-3-oxo-1H-indazol-2-yl)methyl]-1-oxo-phthalazin-2-yl]acetic acid]: the concentration giving a half-maximal response (EC50) is 1970 nM in test [1]; 30.8 nM in test [2]; 28.3 nM in test [3]; 701 nM in test [4]; 19800 nM in test [5]; ≥ 19800 nM in test [6].

Regarding `O=C(O)Cn1nc(Cn2[nH]c3cc(OCC4CC4)c(Cl)cc3c2=O)c2ccccc2c1=O` [Compound 134, 2-[4-[[5-chloro-6-(cyclopropylmethoxy)-3-oxo-1H-indazol-2-yl]methyl]-1-oxo-phthalazin-2-yl]acetic acid], the concentration for a half-maximal effect (EC50) is 745 nM in test [1]; 10.1 nM in test [2]; 10 nM in test [3]; 163 nM in test [4]; 19800 nM in test [5]; 12000 nM in test [6].

On to `N#Cc1cc2nn(Cc3nn(CC(=O)O)c(=O)c4ccccc34)cc2cc1OCC1CC1` [Compound 135, 2-[4-[[6-cyano-5-(cyclopropylmethoxy)indazol-2-yl]methyl]-1-oxo-phthalazin-2-yl]acetic acid], for which the EC50 in test [1] is 178 nM; in test [2] it was 24.3 nM; in test [3], 37.5 nM; in test [4], 3460 nM; in test [5], 19800 nM; in test [6], ≥ 19800 nM.

For `CC(C)(C)NC(=O)Cn1nc(Cn2cc3cc(OCC4CC4)c(Cl)cc3n2)c2ccccc2c1=O` [Compound 144, N-tert-butyl-2-[4-[[6-chloro-5-(cyclopropylmethoxy)indazol-2-yl]methyl]-1-oxo-phthalazin-2-yl]acetamide], the EC50 in test [1] is 226 nM; in test [2], 511 nM; in test [3] it was 191 nM; in test [4], 3400 nM; in test [5], 19800 nM; in test [6], ≥ 19800 nM.

Turning to `O=C(Cn1nc(Cc2nc3cc(Cl)c(OC(F)(F)F)cc3[nH]2)c2c(c1=O)CCCC2)N[C@H]1CCC[C@@H]1O` [Compound 146, 2-[4-[[5-chloro-6-(trifluoromethoxy)-1H-benzimidazol-2-yl]methyl]-1-oxo-5,6,7,8-tetrahydrophthalazin-2-yl]-N-[(1S,2S)-2-hydroxycyclopentyl]acetamide], the EC50 was 23 nM in test [1]; 29.5 nM in test [2]; 15.3 nM in test [3]; 280 nM in test [4]; 6640 nM in test [5]; ≥ 19900 nM in test [6].

As to `O=C(Cn1nc(Cc2nc3cc(Cl)c(OCC4CC4)c(F)c3[nH]2)c2ccccc2c1=O)N1CCOCC1` [Compound 149, 4-[[5-chloro-6-(cyclopropylmethoxy)-7-fluoro-1H-benzimidazol-2-yl]methyl]-2-(2-morpholino-2-oxo-ethyl)phthalazin-1-one], the concentration giving a half-maximal response (EC50) in test [1] was 142 nM; in test [2] it was 211 nM; in test [3], 30.4 nM; in test [4] it was 381 nM; in test [5], 19800 nM; in test [6], ≥ 19800 nM.

For the compound `O=C(Cn1nc(Cc2nc3cc(OCC(F)F)c(Cl)cc3[nH]2)c2c(F)ccc(F)c2c1=O)N1CCOCC1` [Compound 152, 4-[[6-chloro-5-(2,2-difluoroethoxy)-1H-benzimidazol-2-yl]methyl]-5,8-difluoro-2-(2-morpholino-2-oxo-ethyl)phthalazin-1-one], the 50% effective concentration (EC50) in test [1] was 64 nM; in test [2], 6.65 nM; in test [3], 19.1 nM; in test [4], 201 nM; in test [5] it was 19800 nM; in test [6], ≥ 19800 nM.

As to `N#Cc1ccc2c(=O)n(CC(=O)N3CCOCC3)nc(Cc3nc4cc(OCC(F)F)c(Cl)cc4[nH]3)c2c1` [Compound 153], the concentration giving a half-maximal response (EC50) in test [1] is 246 nM; in test [2] it was 27.4 nM; in test [3] it was 28.5 nM; in test [4] it was 254 nM; in test [5], 19800 nM; in test [6] it was ≥ 19800 nM.

Regarding `O=C(Cn1nc(Cc2nc3cc(OCC(F)F)c(F)cc3[nH]2)c2ccccc2c1=O)N1CCOCC1` [Compound 156, 4-[[5-(2,2-difluoroethoxy)-6-fluoro-1H-benzimidazol-2-yl]methyl]-2-(2-morpholino-2-oxo-ethyl)phthalazin-1-one], the EC50 in test [1] is 647 nM; in test [2], 593 nM; in test [3], 59.8 nM; in test [4] it was 868 nM; in test [5], 19800 nM; in test [6] it was ≥ 19800 nM.

Turning to `O=C(Cc1nn(Cc2nc3cc(OCC(F)F)c(Cl)cc3[nH]2)c2ccccc2c1=O)N1CCOCC1` [Compound 159, 1-[6-Chloro-5-(2,2-difluoro-ethoxy)-1H-benzoimidazol-2-ylmethyl]-3-(2-morpholin-4-yl-2-oxo-ethyl)-1H-cinnolin-4-one], the EC50 in test [1] was 30.7 nM; in test [2], 1.02 nM; in test [3], 9.25 nM; in test [4], 14 nM; in test [5], 19800 nM; in test [6], ≥ 19800 nM.

`N#CC1(COc2cc3[nH]c(Cc4nn(CC(=O)N5CCOCC5)c(=O)c5ccccc45)nc3cc2Cl)CC1` [Compound 161, 1-[[6-chloro-2-[[3-(2-morpholino-2-oxo-ethyl)-4-oxo-phthalazin-1-yl]methyl]-3H-benzimidazol-5-yl)oxymethyl]cyclopropanecarbonitrile]: the EC50 is 154 nM in test [1]; 47.4 nM in test [2]; 15.6 nM in test [3]; 108 nM in test [4]; 19800 nM in test [5]; ≥ 19800 nM in test [6].

Turning to `N#Cc1cc2nc(Cc3nn(CC(=O)N4CCOCC4)c(=O)c4c3CCCC4)[nH]c2cc1OCC(F)F` [Compound 164, 6-(2,2-difluoroethoxy)-2-[[3-(2-morpholino-2-oxo-ethyl)-4-oxo-5,6,7,8-tetrahydrophthalazin-1-yl]methyl]-1H-benzimidazole-5-carbonitrile], the EC50 in test [1] was 129 nM; in test [2], 42.6 nM; in test [3] it was 31.9 nM; in test [4] it was 64.9 nM; in test [5] it was 19800 nM; in test [6], ≥ 19800 nM.
